Measured values: ChEMBL document CHEMBL3045134, “Synthesis, molecular modeling and anti-inflammatory screening of new 1,2,3-benzotriazinone derivatives” (Med Chem Res, 2012)

Key:
[1] = system: Rattus norvegicus; assay: Ulcerogenicity in Rattus norvegicus albino (rat) at 0.9 mg/100 g/day, po qd for 3 successive days; format: toxicity, organism-based; conditions: in vivo
[2] = system: Rattus norvegicus; assay: Anti-inflammatory activity inRattus norvegicus albino (rat) assessed as reduction in carrageenan-induced paw edema at 10 mg/kg, ip administered 1 hr prior to carrageenan-induced measured 1 to 4 hr post challenge relative to indomethacin; format: functional; parameters: scale not given: the % may be the effect or the level left; conditions: route intraperitoneal
[3] = system: Rattus norvegicus; assay: Anti-inflammatory activity carrageenan-induced paw edema inRattus norvegicus albino (rat) assessed as paw thickness at 9 mg/kg, ip administered 1 hr prior to carrageenan-induced measured 2 hr post challenge; format: functional; conditions: route intraperitoneal
[4] = system: Rattus norvegicus; assay: Anti-inflammatory activity carrageenan-induced paw edema inRattus norvegicus albino (rat) assessed as paw thickness at 9 mg/kg, ip administered 1 hr prior to carrageenan-induced measured 3 hr post challenge; format: functional; conditions: route intraperitoneal
[5] = system: Rattus norvegicus; assay: Anti-inflammatory activity carrageenan-induced paw edema inRattus norvegicus albino (rat) assessed as paw thickness at 9 mg/kg, ip administered 1 hr prior to carrageenan-induced measured 1 hr post challenge; format: functional; conditions: route intraperitoneal
[6] = system: Rattus norvegicus; assay: Anti-inflammatory activity carrageenan-induced paw edema in Rattus norvegicus albino (rat) assessed as paw thickness at 9 mg/kg, ip administered 1 hr prior to carrageenan-induced measured 4 hr post challenge; format: functional; conditions: route intraperitoneal
[7] = system: Rattus norvegicus; assay: Anti-inflammatory activity carrageenan-induced paw edema in Rattus norvegicus albino (rat) at 9 mg/kg, ip administered 1 hr prior to carrageenan-induced measured 1 to 4 hr post challenge relative to control; format: functional; conditions: route intraperitoneal
[8] = system: Rattus norvegicus; assay: Ulcerogenicity in Rattus norvegicus albino (rat) at 9 mg/kg/day, po qd for 3 successive days; format: toxicity, organism-based; parameters: route oral; conditions: in vivo
[9] = system: Rattus norvegicus; assay: Anti-inflammatory activity carrageenan-induced paw edema in Rattus norvegicus albino (rat) assessed as paw thickness at 10 mg/kg, ip administered 1 hr prior to carrageenan-induced measured 4 hr post challenge; format: functional; conditions: route intraperitoneal
[10] = system: Rattus norvegicus; assay: Anti-inflammatory activity carrageenan-induced paw edema in Rattus norvegicus albino (rat) assessed as paw thickness at 10 mg/kg, ip administered 1 hr prior to carrageenan-induced measured 1 hr post challenge; format: functional; conditions: route intraperitoneal
[11] = system: Rattus norvegicus; assay: Anti-inflammatory activity carrageenan-induced paw edema in Rattus norvegicus albino (rat) at 10 mg/kg, ip administered 1 hr prior to carrageenan-induced measured 1 to 4 hr post challenge relative to control; format: functional; conditions: route intraperitoneal
[12] = system: Rattus norvegicus; assay: Anti-inflammatory activity carrageenan-induced paw edema in Rattus norvegicus albino (rat) assessed as paw thickness at 10 mg/kg, ip administered 1 hr prior to carrageenan-induced measured 2 hr post challenge; format: functional; conditions: route intraperitoneal
[13] = system: Rattus norvegicus; assay: Anti-inflammatory activity carrageenan-induced paw edema in Rattus norvegicus albino (rat) assessed as paw thickness at 10 mg/kg, ip administered 1 hr prior to carrageenan-induced measured 3 hr post challenge; format: functional; conditions: route intraperitoneal

| SMILES | UI [1] | Activity [2] | Activity [3] | Activity [4] | Activity [5] | Activity [6] | Activity [7] | UI [8] | Activity [9] | Activity [10] | Activity [11] | Activity [12] | Activity [13] |
| --- | --- | --- | --- | --- | --- | --- | --- | --- | --- | --- | --- | --- | --- |
| Cc1ccc(NC(=O)Cn2nnc3ccccc3c2=O)cc1 | 140 | 36.7746% | 3.1 mm | 4 mm | 2.62 mm | 4.12 mm | 63.23% | – | – | – | – | – | – |
| Cc1ccc(C)n1NC(=O)Cn1nnc2ccccc2c1=O | 220 | 34.046% | 4.75 mm | 4.75 mm | 3.75 mm | 4.25 mm | 65.95% | – | – | – | – | – | – |
| Cc1cc(C)n(C(=O)Cn2nnc3ccccc3c2=O)n1 | 140 | 33.313% | 2.75 mm | 3.5 mm | 2.12 mm | 3.75 mm | 66.69% | – | – | – | – | – | – |
| Cc1cc(-c2ccccc2)n(C(=O)Cn2nnc3ccccc3c2=O)n1 | 120 | 54.2048% | 4.37 mm | 4.5 mm | 3.25 mm | 3.75 mm | 45.8% | – | – | – | – | – | – |
| O=c1c2ccccc2nnn1Cc1nnc(Nc2ccccc2)s1 | 340 | 29.3016% | 4.2 mm | 4.62 mm | 3.75 mm | 5.25 mm | 70.7% | – | – | – | – | – | – |
| O=c1c2ccccc2nnn1Cc1nnc(Nc2ccccc2)o1 | 340 | 29.3016% | 4.2 mm | 4.62 mm | 3.75 mm | 5.25 mm | 70.7% | – | – | – | – | – | – |
| O=C(Cn1nnc2ccccc2c1=O)N/N=c1/scc(-c2ccccc2)n1-c1ccccc1 | 300 | 45.9377% | 4.75 mm | 5 mm | 4 mm | 5.12 mm | 54.06% | – | – | – | – | – | – |
| COc1cccc(NC(=O)Cn2nnc3ccccc3c2=O)c1 | 240 | 38.7294% | 3.12 mm | 3.25 mm | 2.75 mm | 3.25 mm | 61.27% | – | – | – | – | – | – |
| COc1ccccc1NC(=O)Cn1nnc2ccccc2c1=O | 210 | 52.1686% | 5.25 mm | 4 mm | 3.8 mm | 4.25 mm | 47.8314% | – | – | – | – | – | – |
| Cc1ccccc1NC(=O)Cn1nnc2ccccc2c1=O | 240 | 33.9238% | 4 mm | 4 mm | 4.4 mm | 4.25 mm | 66.08% | – | – | – | – | – | – |
| CC(=O)c1ccc(NC(=O)Cn2nnc3ccccc3c2=O)cc1 | 130 | 47.7499% | 3.87 mm | 3.37 mm | 3.87 mm | 4.37 mm | 52.25% | – | – | – | – | – | – |
| O=C(Cn1nnc2ccccc2c1=O)Nc1ccccc1 | 300 | 41.7838% | 4.25 mm | 4.1 mm | 4.5 mm | 3.8 mm | 58.22% | – | – | – | – | – | – |
| Cc1ccc(-c2cc(C(F)(F)F)nn2-c2ccc(S(N)(=O)=O)cc2)cc1 [CELECOXIB] | – | 57.0556% | 3.37 mm | 3.75 mm | 3.22 mm | 3.87 mm | 42.94% | 120 | – | – | – | – | – |
| COc1ccc2c(c1)c(CC(=O)O)c(C)n2C(=O)c1ccc(Cl)cc1 [INDOMETHACIN] | – | – | – | – | – | – | – | 450 | 3.75 mm | 2.12 mm | 100% | 2.25 mm | 3.25 mm |
